ChEMBL document CHEMBL1201862, “PubChem BioAssay data set” (2004)
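Briefly, cells in 96-well plates were exposed to five compound concentrations for 48 h, and endpoints were estimated by linear interpolation. The concentration for 50% growth inhibition is given as GI50.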 Activity calls are given as the source filed them. Cut-off read from the data, not from the text of the source: active = GI50 up to about 1.1 µM and inactive = higher.

Assays:
Experiment in all cases: NCI-60 cell line screen, 48 h
[1] = system: Malme-3M
[2] = system: OVCAR-4
[3] = system: Hs-578T
[4] = system: HOP-92
[5] = system: NCI-H23
[6] = system: M14
[7] = system: A498
[8] = system: SK-MEL-2
[9] = system: MDA-MB-231
[10] = system: HOP-62
[11] = system: RPMI-8226
[12] = system: MOLT-4
[13] = system: A549
[14] = system: HCT-15
[15] = system: TK-10
[16] = system: OVCAR-5
[17] = system: SF-539
[18] = system: T47D
[19] = system: EKVX
[20] = system: SF-268
[21] = system: KM12
[22] = system: RXF 393
[23] = system: NCI-H522
[24] = system: LOX IMVI
[25] = system: UO-31
[26] = system: DU-145
[27] = system: ACHN
[28] = system: MDA-MB-435
[29] = system: NCI-H460
[30] = system: UACC-62
[31] = system: SN12C
[32] = system: MCF7
[33] = system: U-251
[34] = system: SK-OV-3
[35] = system: HL-60
[36] = system: SK-MEL-5
[37] = system: COLO 205
[38] = system: SR
[39] = system: SF-295
[40] = system: OVCAR-8
[41] = system: IGROV-1
[42] = system: SW-620
[43] = system: NCI/ADR-RES
[44] = system: 786-0
[45] = system: MDA-N
[46] = system: SK-MEL-28
[47] = system: OVCAR-3
[48] = system: HCT-116
[49] = system: CAKI-1
[50] = system: SNB-19
[51] = system: UACC-257
[52] = system: CCRF-CEM
[53] = system: K562
[54] = system: HT-29
[55] = system: PC-3
[56] = system: BT-549
[57] = system: SNB-75
[58] = system: NCI-H226
[59] = system: HCC 2998

In the case of `C=C1C(=O)C=C[C@]2(C)CC[C@H]3C(=C)C(=O)O[C@@H]3[C@@H]12`, the GI50 [1] is reported as 1.97 µM (inactive), the GI50 [2] is reported as 2.21 µM (inactive) and the GI50 [3] is reported as 4.1 µM (inactive). For the same compound, the GI50 [4] was 2.87 µM (inactive), the GI50 [5] was 2.63 µM (inactive) and the GI50 [6] was 1.76 µM (inactive). For the same compound, the GI50 [7] was 3.52 µM (inactive), the GI50 [8] was 2.55 µM (inactive) and the GI50 [9] was 4.08 µM (inactive). For the same compound, the GI50 [10] was 2.48 µM (inactive), the GI50 [11] was 0.346 µM (active) and the GI50 [12] was 0.52 µM (active). For the same compound, the GI50 [13] was 11.6 µM (inactive), the GI50 [14] was 0.785 µM and the GI50 [15] was 0.419 µM (active). The GI50 [16] was 1.33 µM (inactive), the GI50 [17] was 0.562 µM (active) and the GI50 [18] was 2.22 µM (inactive). The GI50 [19] was 3.17 µM (inactive), the GI50 [20] was 3.15 µM (inactive) and the GI50 [21] was 1.61 µM (inactive). The GI50 [22] was 1.45 µM (inactive), the GI50 [23] was 753 nM (active) and the GI50 [24] was 1.8 µM (inactive). The GI50 [25] was 1.43 µM (inactive), the GI50 [26] was 2.09 µM (inactive) and the GI50 [27] was 0.9 µM (active). For the same compound, the GI50 [28] was 1.57 µM (inactive), the GI50 [29] was 12.1 µM (inactive) and the GI50 [30] was 1.96 µM (inactive). For the same compound, the GI50 [31] was 2.96 µM (inactive), the GI50 [32] was 0.738 µM (active) and the GI50 [33] was 2.13 µM (inactive). For the same compound, the GI50 [34] was 8.73 µM (inactive), the GI50 [35] was 1.9 µM (inactive) and the GI50 [36] was 2.34 µM (inactive). For the same compound, the GI50 [37] was 0.964 µM (active), the GI50 [38] was 1.79 µM (inactive) and the GI50 [39] was 15.1 µM (inactive). For the same compound, the GI50 [40] was 1.53 µM (inactive), the GI50 [41] was 1.29 µM (inactive) and the GI50 [42] was 0.813 µM (active). The GI50 [43] was 2.34 µM (inactive), the GI50 [44] was 0.461 µM (active) and the GI50 [45] was 1.88 µM (inactive). For the same compound, the GI50 [46] was 1.91 µM (inactive), the GI50 [47] was 1.85 µM (inactive) and the GI50 [48] was 0.195 µM (active). For the same compound, the GI50 [49] was 2.22 µM (inactive), the GI50 [50] was 14.6 µM (inactive) and the GI50 [51] was 2.67 µM (inactive). The GI50 [52] was 0.579 µM (active), the GI50 [53] was 1.39 µM (inactive) and the GI50 [54] was 1.56 µM (inactive). For the same compound, the GI50 [55] was 2.84 µM (inactive) and the GI50 [56] was 2.35 µM (inactive).
`COC(=O)c1cn(CCCCO)nn1` was tested, and the GI50 [1] was > 100 µM (inactive), the GI50 [57] was > 100 µM (inactive) and the GI50 [2] was > 100 µM (inactive). For the same compound, the GI50 [3] was > 100 µM (inactive), the GI50 [58] was > 100 µM (inactive) and the GI50 [4] was > 100 µM (inactive). For the same compound, the GI50 [5] was > 100 µM (inactive), the GI50 [8] was > 100 µM (inactive) and the GI50 [9] was > 100 µM (inactive). The GI50 [10] was > 100 µM (inactive), the GI50 [12] was > 100 µM (inactive) and the GI50 [59] was > 100 µM (inactive). The GI50 [13] was > 100 µM (inactive), the GI50 [14] was > 100 µM and the GI50 [15] was > 100 µM (inactive). For the same compound, the GI50 [17] was > 100 µM (inactive), the GI50 [18] was 3.65 µM (inactive) and the GI50 [19] was > 100 µM (inactive). For the same compound, the GI50 [20] was > 100 µM (inactive), the GI50 [21] was > 100 µM (inactive) and the GI50 [22] was > 100 µM (inactive). The GI50 [24] was > 100 µM (inactive), the GI50 [25] was > 100 µM (inactive) and the GI50 [26] was > 100 µM (inactive). For the same compound, the GI50 [27] was > 100 µM (inactive), the GI50 [28] was > 100 µM (inactive) and the GI50 [29] was > 100 µM (inactive). For the same compound, the GI50 [30] was > 100 µM (inactive), the GI50 [31] was > 100 µM (inactive) and the GI50 [32] was > 100 µM (inactive). For the same compound, the GI50 [33] was > 100 µM (inactive), the GI50 [36] was > 100 µM (inactive) and the GI50 [37] was > 100 µM (inactive). For the same compound, the GI50 [38] was > 100 µM (inactive), the GI50 [39] was > 100 µM (inactive) and the GI50 [40] was > 100 µM (inactive). The GI50 [41] was > 100 µM (inactive), the GI50 [42] was > 100 µM (inactive) and the GI50 [43] was > 100 µM (inactive). The GI50 [44] was > 100 µM (inactive), the GI50 [45] was > 100 µM (inactive) and the GI50 [46] was > 100 µM (inactive). The GI50 [48] was > 100 µM (inactive), the GI50 [49] was > 100 µM (inactive) and the GI50 [50] was > 100 µM (inactive). The GI50 [51] was > 100 µM (inactive), the GI50 [52] was > 100 µM (inactive) and the GI50 [54] was > 100 µM (inactive). The GI50 [55] was > 100 µM (inactive) and the GI50 [56] was > 100 µM (inactive).
With `O=C(c1ccc(Cl)cc1)N1CCN=C1c1cc2ccccc2c2ccccc12` the GI50 [1] was 17.3 µM (inactive), the GI50 [57] was 12.4 µM (inactive) and the GI50 [2] was 14.2 µM (inactive). The GI50 [3] was 17.5 µM (inactive), the GI50 [4] was 11.6 µM (inactive) and the GI50 [5] was 17.6 µM (inactive). The GI50 [6] was 38.7 µM (inactive), the GI50 [7] was 15.4 µM (inactive) and the GI50 [8] was 15.6 µM (inactive). For the same compound, the GI50 [9] was 16.2 µM (inactive), the GI50 [10] was 18.8 µM (inactive) and the GI50 [11] was 19.8 µM (inactive). The GI50 [12] was 33.7 µM (inactive), the GI50 [13] was 15.9 µM (inactive) and the GI50 [14] was 16.6 µM. For the same compound, the GI50 [15] was 15.2 µM (inactive), the GI50 [16] was 19.8 µM (inactive) and the GI50 [17] was 15.7 µM (inactive). The GI50 [18] was 19.1 µM (inactive), the GI50 [19] was 13.8 µM (inactive) and the GI50 [20] was 16.7 µM (inactive). For the same compound, the GI50 [21] was 15.8 µM (inactive), the GI50 [22] was 16.1 µM (inactive) and the GI50 [24] was 17.8 µM (inactive). The GI50 [25] was 16.9 µM (inactive), the GI50 [26] was 17.9 µM (inactive) and the GI50 [27] was 17.4 µM (inactive). For the same compound, the GI50 [28] was 15.7 µM (inactive), the GI50 [29] was 11.5 µM (inactive) and the GI50 [30] was 14.5 µM (inactive). The GI50 [31] was 16.9 µM (inactive), the GI50 [32] was 17.7 µM (inactive) and the GI50 [33] was 16.3 µM (inactive). For the same compound, the GI50 [34] was 16.1 µM (inactive), the GI50 [35] was 21.8 µM (inactive) and the GI50 [36] was 14.8 µM (inactive). For the same compound, the GI50 [37] was 16 µM (inactive), the GI50 [38] was 22.6 µM (inactive) and the GI50 [39] was 16.6 µM (inactive). For the same compound, the GI50 [40] was 17.3 µM (inactive), the GI50 [41] was 14.3 µM (inactive) and the GI50 [42] was 17.3 µM (inactive). The GI50 [43] was 15.6 µM (inactive), the GI50 [44] was 16.7 µM (inactive) and the GI50 [45] was 16.4 µM (inactive). For the same compound, the GI50 [46] was 15.5 µM (inactive), the GI50 [47] was 17.6 µM (inactive) and the GI50 [48] was 14.9 µM (inactive). The GI50 [49] was 15.7 µM (inactive), the GI50 [50] was 16.4 µM (inactive) and the GI50 [51] was 17.5 µM (inactive). For the same compound, the GI50 [52] was 27.4 µM (inactive), the GI50 [53] was 27.7 µM (inactive) and the GI50 [54] was 15.8 µM (inactive). The GI50 [55] was 17.1 µM (inactive) and the GI50 [56] was 19 µM (inactive).
